Measured values reported in patent publication EP4620949A1, “ACKR3 MODULATORS FOR CARDIOVASCULAR OR ANTIPLATELET THERAPY” (Eberhard Karls Universität Tübingen (Medizinische Fakultät), priority 2024, dated 2025).
Values joined by “and” are separate entries in the source; they are usually repeats but may differ in a detail not shown here. Equal entries are not always repeated.

Experiments:
platelets [1] = assay: Flow cytometry assay of platelet degranulation (P-Selectin surface expression in PRP); type: cell-based, human; details: for P-Selectin expression reduction: PRP pre-incubated with compound (100 µM), then CRP-XL (1 µg/mL), % ±SEM normalized to CRP-XL-treated vehicle PRP
Method: Platelet Degranulation Studies of Derivatives. Concurrent with the β-Arrestin recruitment potency optimization, the compounds were also tested and developed according to their functional activity. To determine the ability of a compound to modulate platelets, P-Selectin surface expression was measured. P-Selectin is a surface protein involved in cell adhesion mechanisms and can be found on activated platelets. After induction of platelet aggregation in platelet-rich plasma (PRP), treatment with the respective compound should therefore lead to a significant reduction in P-Selectin expression. […]. […]. Similarly, platelet degranulation potency was highly sensitive toward "linker"-changes (Structure C, Table 1). A distinct trend could not be registered. […]. Flow Cytometry Assay. The inhibition of platelet degranulation was determined via flow cytometry experiments. Platelets were treated with collagen-related peptide (CRP-XL, CambCol Laboratories, Cambridge, UK) and the platelets' activation state was determined (Geue, S.; Aurbach, K.; Manke, M.-C.; Manukjan, G.; Münzer, P.; Stegner, D.; Brähler, C.; Walker-Allgaier, B.; Märklin, M.; Borst, C. E.; Quintanilla-Fend, L.; Rath, D.; Geisler, T.; Salih, H. R.; Seizer, P.; Lang, F.; Nieswandt, B.; Gawaz, M.; Schulze, H.; Pleines, I.; Borst, O. Pivotal role of pdk1 in megakaryocyte cytoskeletal dynamics and polarization during platelet biogenesis. Blood 2019, 134, 1847-1858; and Malehmir, M.; Pfister, D.; Gallage, S.; Szydlowska, M.; Inverso, D.; Kotsiliti, E.; Leone, V.; Peiseler, M.; Surewaard, B. G. J.; Rath, D.; Ali, A.; Wolf, M. J.; Drescher, H.; Healy, M. E.; Dauch, D.; Kroy, D.; Krenkel, O.; Kohlhepp, M.; Engleitner, T.; Olkus, A.; Sijmonsma, T.; Volz, J.; Deppermann, C.; Stegner, D.; Helbling, P.; Nombela-Arrieta, C.; Rafiei, A.; Hinterleitner, M.; Rail, M.; Baku, F.; Borst, O.; Wilson, C. L.; Leslie, J.; O'Connor, T.; Wes-ton, C. J.; Chauhan, A.; Adams, D. H.; Sheriff, L.; Teijeiro, A.; Prinz, M.; Bogeska, R.; An-stee, N.; Bongers, M. N.; Notohamiprodjo, M.; Geisler, T.; Withers, D. J.; Ware, J.; Mann, D. A.; Augustin, H. G.; Vegiopoulos, A.; Milsom, M. D.; Rose, A. J.; Lalor, P. F.; Llovet, J. M.; Pinyol, R.; Tacke, F.; Rad, R.; Matter, M.; Djouder, N.; Kubes, P.; Knolle, P. A.; Unger, K.; Zender, L.; Nieswandt, B.; Gawaz, M.; Weber, A.; Heikenwalder, M. Platelet gpibα is a mediator and potential interventional target for nash and subsequent liver cancer. Nat. Med. 2019, 25, 641-655). Briefly, PRP was isolated from peripheral human blood collected in citrate-phosphate-dextrose solution with adenine (CPDA) and diluted with phosphate-buffered saline (PBS) (Sigma Aldrich Co., Ltd., St. Luis, Missouri, USA) supplemented with CaCl2 and MgCl2. PRP (106 platelets /sample) was preincubated with the respective compound (100 µM) for 15 min. Samples were treated with 1 µg/ml CRP-XL (CambCol Laboratories, Cambridge, UK) for 30 min at room temperature in the presence of the respective fluorochrome-conjugated antibody against P-Selectin (CD62P-FITC; Beckman Coulter, Brea, CA, USA). Subsequently, samples were fixed in 0.5% paraformaldehyde and analyzed on a FACS-Calibur flow cytometer (FACS-Caliber flow cytometer, Becton-Dickinson, East Rutherford, NJ, USA). Mean fluorescence intensity (MFI) was used as a quantitative measurement of platelet surface expression.

Kinetic solubility assay = type: physicochemical; details: for Solubility (in words): mixture 1 vol.% DMSO and 99 vol.% PBS buffer; for solubility: PBS buffer with 1% DMSO, 4 °C, aqueous buffer, kinetic from dmso stock, 1% DMSO, 99% PBS buffer (pH 7.4)
Method: Solubility Assay. A 100 mL flask with phosphate-buffered saline was prepared from NaCl, KCI, Na2HPO4, KH2PO4, and distilled water. The buffer was adjusted to pH 7.4 with HCl. Afterwards, 10mM stock solutions of compounds in DMSO were prepared. 10 µL compound stock solution was added to 990 µL PBS in Eppendorf tubes. As a reference, 10 µL compound stock solution was added to 990 µL HPLC-grade MeOH in Eppendorf tubes. All tubes were centrifuged (16000 relative centrifugal force, 4 °C, 20 min). Subsequently, 600 µL supernatant was extracted carefully and filled into HPLC vials. […] Compounds solubility was calculated by AUC of compound in PBS divided by AUC of reference solution multiplied by concentration of the compound in solution.

human ACKR3 = biological target: T1, human ACKR3 (Homo sapiens, UniProt P25106); assay: ACKR3 β-Arrestin recruitment assay (NanoLuc complementation, NanoBiT) in HEK293T cells; type: cell-based; details: for Efficacy (Emax) vs CXCL12: efficacy of CXCL12 at 300 nM set as 100%, average of three independent experiments
T1 construct: expressed in transfected cells; host or cells: HEK293T
Method: ACKR3 β-Arrestin Recruitment Assay. […] T.; Encell, L. P.; Wood, K. V. Nanoluc complementation reporter optimized for accurate measurement of protein interactions in cells. […] B.; Reynders, N.; Vanderplasschen, A.; Ollert, M.; Bouvier, M.; Szpakowska, M.; Chevigné, A. Proadrenomedullin n-terminal 20 peptides (pamps) are agonists of the chemokine scavenger receptor ACKR3/CXCR7. […] The prepared cells were then treated with compounds at concentrations ranging from 0.3 nM to 100 µM. Induction of β-Arrestin recruitment to receptors was evaluated by measuring bioluminescence with a Mithras LB940 luminometer (Berthold Technologies).
All curves were fitted to data points generated from the mean of at least three independent experiments. Results with values of p < 0.05 were considered statistically significant.

HEK293 cells = assay: RealTime-Glo MT cell viability assay; type: cell-based; details: concentrations of 1 µM and below, up to 72 h
Method: Cell viability studies. […].
Cell Viability Assay. RealTime-Glo™ MT Cell Viability Assay (Promega Corporation, Madison, WI, USA) was performed using THP1 cells and HEK293 cells as indicated in the manufacturer's manual to measure a compound's cytotoxicity on cells. In brief, in a white solid-bottom 96-well plate cells (5x10^3/well) were seeded and incubated with the respective compounds diluted in DMEM (Gibco, Carlsbad, CA, USA). After cell seeding viability reagent is added. Subsequently, cells were incubated with the compound and viability reagent containing medium at 37 °C, 5% CO2 for 72 h. The luminescence signal was determined after 1, 24, 48, and 72 hours on a GloMax®-Multi Detection System plate reader (Promega Corporation, Madison, Wl, USA).

platelets [2] = assay: Light transmission platelet aggregation experiments; type: cell-based; details: preincubation with 100 µM ACKR3 agonist, activation with 2.5 µM ADP; compared to the control
Method: Platelet aggregation studies. To further evaluate the compounds inhibitory potential of platelet aggregation, aggregation experiments were conducted.
Aggregation experiments. For the light transmission aggregation experiments, citrate anticoagulated blood from healthy donors was used. To obtain platelet-rich plasma, whole blood was centrifuged at 210 × g for 20 min at room temperature. 1 × 10^8 platelets were preincubated with 100 µM ACKR3 agonist for 15 min at 37°C. Subsequently, platelets were activated with 2.5 µM ADP and aggregation was analyzed for 5 min at 1,000 rpm and 37°C using a light transmission aggregometer (Aggregometer 490-X; Chrono-Log Corp., Havertown, Pennsylvania, United States). Maximum platelet aggregation and the area under the curve were quantified using Aggrolink8 software (Chrono-Log Corp., Havertown, Pennsylvania, United States).

[3] = ACKR3, HEK293T cells, average value of three independent experiments

T1 sequence (P25106 whole entry): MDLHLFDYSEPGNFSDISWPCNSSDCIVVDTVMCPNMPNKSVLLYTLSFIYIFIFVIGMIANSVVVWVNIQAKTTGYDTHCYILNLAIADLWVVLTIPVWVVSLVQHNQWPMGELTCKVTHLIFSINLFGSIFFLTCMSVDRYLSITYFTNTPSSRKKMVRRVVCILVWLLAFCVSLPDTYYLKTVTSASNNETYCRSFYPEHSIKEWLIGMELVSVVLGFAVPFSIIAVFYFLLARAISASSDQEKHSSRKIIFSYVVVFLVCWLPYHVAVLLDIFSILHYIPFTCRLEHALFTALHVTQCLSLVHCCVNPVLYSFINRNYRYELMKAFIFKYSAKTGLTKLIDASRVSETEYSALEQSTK
T1 sequence (P49407 whole entry partner): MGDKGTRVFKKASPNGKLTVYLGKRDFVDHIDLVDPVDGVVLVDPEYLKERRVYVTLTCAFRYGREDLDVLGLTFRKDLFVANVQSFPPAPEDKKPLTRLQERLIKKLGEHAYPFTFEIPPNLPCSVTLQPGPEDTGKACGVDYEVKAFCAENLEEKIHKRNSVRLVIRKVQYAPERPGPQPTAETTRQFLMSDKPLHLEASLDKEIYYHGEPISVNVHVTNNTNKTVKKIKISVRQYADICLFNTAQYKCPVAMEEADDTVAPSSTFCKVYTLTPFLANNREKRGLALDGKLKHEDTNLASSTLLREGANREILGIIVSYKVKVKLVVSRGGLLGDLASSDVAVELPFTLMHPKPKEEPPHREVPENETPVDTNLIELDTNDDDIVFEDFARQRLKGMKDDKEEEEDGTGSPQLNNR

SMILES | P-Selectin expression reduction (platelets [1]) | EC50 (human ACKR3; [3]) [nM] | Efficacy (Emax) vs CXCL12 (human ACKR3) [%] | further results
CCCN(CCCNC(=O)c1ccc(-c2ccccc2)s1)Cc1ccccc1 [Compound 26, N-(3-(benzyl(propyl)amino)propyl)-5-phenylthiophene-2-carboxamide] | 76±7% |  |  | Solubility (in words) (Kinetic solubility assay): good solubility
O=C(NCC1CCCN(Cc2ccccc2)C1)c1ccc(-c2ccccc2)s1 (centres unmarked) [Compound 39, N-((1-benzylpiperidin-3-yl)methyl)-5-phenylthiophene-2-carboxamide] | 42±9% | 1220 |  | 
O=C(NCCCN(CCCc1ccccc1)Cc1ccccc1)c1ccc(-c2ccccc2)s1 [Compound 30, N-(3-(benzyl(3-phenylpropyl)amino)propyl)-5-phenylthiophene-2-carboxamide] | 1±5% | 1060 |  | Solubility (in words) (Kinetic solubility assay): good solubility
CC(C)(C)OC(=O)N1CCN(CCNC(=O)c2cc3ccccc3s2)CC1 [Compound 49, tert-butyl 4-(2-(benzo[b]thiophene-2-carboxamido)ethyl)piperazine-1-carboxylate] | 70% | 4550 | 25 | 
CC(C)(C)OC(=O)N1CCN(CCCNC(=O)c2csc(-c3ccccc3)n2)CC1 [Compound 46, tert-butyl 4-(3-(2-phenylthiazole-4-carboxamido)propyl)piperazine-1-carboxylate] | 86% | 2700 | 65 | 
CCN(CCCNC(=O)c1ccc(-c2ccccc2)s1)Cc1ccccc1 [Compound 23, N-(3-(benzyl(ethyl)amino)propyl)-5-phenylthiophene-2-carboxamide] |  | 111 |  | cell toxicity / tolerability (in words) (HEK293 cells): tolerated well; solubility (Kinetic solubility assay): 30 µg/mL; solubility (Kinetic solubility assay; average of three independent experiments ± SEM): 75 ± 1 µM; platelet aggregation (in words) (platelets [2]): highest potency for platelet aggregation inhibition
CC(C)(C)OC(=O)NCCCNC(=O)c1ccc(-c2ccccc2)s1 [Compound 33, tert-butyl (3-(5-phenylthiophene-2-carboxamido)propyl)carbamate] | 0±4% |  |  | β-Arrestin recruitment EC50 (human ACKR3; [3]): no activity
O=C(NCCCN(CCCO)Cc1ccccc1)c1ccc(-c2ccccc2)s1 [Compound 28, N-(3-(benzyl(3-hydroxypropyl)amino)propyl)-5-phenylthiophene-2-carboxamide] | 85±4% | 413 |  | 
O=C(c1ccc(-c2ccccc2)s1)N1CCCN(Cc2ccccc2)CC1 [Compound 40, (4-benzyl-1,4-diazepan-1-yl)(5-phenylthiophen-2-yl)methanone] | 76% | 1200 | 32 | 
CN(CCCNC(=O)c1cc2ccccc2o1)Cc1ccccc1 [Compound 5, N-(3-(benzyl(methyl)amino)propyl)benzofuran-2-carboxamide] | 35% |  |  | functional activity (in words) (platelets [1]; P-Selectin flow cytometry, "head"-scaffold compounds): inactive
O=C(NCCCN(CCc1ccccc1)Cc1ccccc1)c1ccc(-c2ccccc2)s1 [Compound 29, N-(3-(benzyl(phenethyl)amino)propyl)-5-phenylthiophene-2-carboxamide] | 2±8% | 459 |  | 
COc1cc(C(=O)N(CCC2CCCN2C)C/C(C)=C/c2ccccc2F)cc(OC)c1OC (centres unmarked) [VUF11207, reference compound] | 65% and 65±6% | 43.6 | 95 | platelet aggregation (in words) (platelets [2]): reduction of platelet aggregation
CN(CCCNC(=O)c1ccc(-c2ccccc2)s1)Cc1ccccc1F [Compound 21, N-(3-((2-fluorobenzyl)(methyl)amino)propyl)-5-phenylthiophene-2-carboxamide] | 40% and 40±10% |  |  | 
CCN(CCCNC(=O)c1ccc(-c2cccc(F)c2)s1)Cc1ccccc1 [Compound 31, N-(3-(benzyl(ethyl)amino)propyl)-5-(3-fluorophenyl)thiophene-2-carboxamide] | 95±1% |  |  | 
CC(C)(C)OC(=O)N1CCCN(C(=O)c2csc(-c3ccccc3)n2)CC1 [Compound 45, tert-butyl 4-(2-phenylthiazole-4-carbonyl)-1,4-diazepane-1-carboxylate] | 93% | 5000 | 29 | 
CC(C)(C)OC(=O)N1CCN(CCCNCc2csc(-c3ccccc3)n2)CC1 [Compound 47, tert-butyl 4-(3-(((2-phenylthiazol-4-yl)methyl)amino)propyl)piperazine-1-carboxylate] | 100% | 2400 | 89 | 
